Assay results as given in PubChem BioAssay AID330 (DTP/NCI, 2004).
Values joined by “and” are separate entries in the source; they are usually repeats but may differ in a detail not shown here. Equal entries are not always repeated. Inconclusive results and toxic doses are left out. How the source made its calls: active means survival T/C of 150% or more; inactive means T/C below 125% in these data.

Test system: P388 leukemia ip, CD2F1 mice, survival T/C
Test: NCI In Vivo Anticancer Drug Screen. Data for tumor model P388 Leukemia (intraperitoneal) in CD2F1 (CDF1) mice
Conditions: endpoint: median survival time, higher = longer survival
Summary of the method: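 Mice carrying the transplanted tumor received test compound or vehicle. Survival was recorded in each group, and the value is the treated-group measurement divided by that of the vehicle-treated control group.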

[1] = dose: 50.0 mg/kg/injection, schedule: Q01DX009 (ip), vehicle: Klucel (hydroxypropylcellulose) (HPC)
[2] = dose: 100.0 mg/kg/injection, schedule: Q01DX009 (ip), vehicle: Klucel (hydroxypropylcellulose) (HPC)
[3] = dose: 100.0 mg/kg/injection, schedule: Q01DX009 (ip), vehicle: saline with Tween-80
[4] = dose: 200.0 mg/kg/injection, schedule: Q01DX009 (ip), vehicle: saline with Tween-80
[5] = dose: 50.0 mg/kg/injection, schedule: Q01DX005 (ip), vehicle: saline
[6] = dose: 100.0 mg/kg/injection, schedule: Q01DX005 (ip), vehicle: saline
[7] = dose: 200.0 mg/kg/injection, schedule: Q01DX005 (ip), vehicle: saline
[8] = dose: 100.0 mg/kg/injection, schedule: Q04DX003 (ip), vehicle: Klucel (hydroxypropylcellulose) (HPC)
[9] = dose: 200.0 mg/kg/injection, schedule: Q04DX003 (ip), vehicle: Klucel (hydroxypropylcellulose) (HPC)
[10] = dose: 400.0 mg/kg/injection, schedule: Q04DX003 (ip), vehicle: Klucel (hydroxypropylcellulose) (HPC)
[11] = dose: 60.0 mg/kg/injection, schedule: Q01DX005 (ip), vehicle: saline with Tween-80
[12] = dose: 120.0 mg/kg/injection, schedule: Q01DX005 (ip), vehicle: saline with Tween-80
[13] = dose: 240.0 mg/kg/injection, schedule: Q01DX005 (ip), vehicle: saline with Tween-80
[14] = dose: 50.0 mg/kg/injection, schedule: Q01DX009 (ip), vehicle: saline with Tween-80
[15] = dose: 50.0 mg/kg/injection, schedule: Q04DX003 (ip), vehicle: saline with Tween-80

Measured: T/C

C=C1CC[C@]2(C)CC[C@]3(C)C4=CC=C5C(=CC(=O)C(O)=C5C)[C@]4(C)CC[C@@]3(C)[C@@H]2C1
inactive: dose: 0.06 mg/kg/injection, schedule: Q01DX009 (ip), vehicle: saline with Tween-80 97 % of control | dose: 0.09 mg/kg/injection, schedule: Q01DX009 (ip), vehicle: none 93 % of control | dose: 0.12 mg/kg/injection, schedule: Q01DX009 (ip), vehicle: saline with Tween-80 103 % of control | dose: 0.19 mg/kg/injection, schedule: Q01DX009 (ip), vehicle: none 103 % of control | dose: 0.25 mg/kg/injection, schedule: Q01DX009 (ip), vehicle: saline with Tween-80 100 % of control and 103 % of control | dose: 0.5 mg/kg/injection, schedule: Q01DX009 (ip), vehicle: none 107 % of control and 98 % of control | dose: 0.5 mg/kg/injection, schedule: Q01DX009 (ip), vehicle: saline with Tween-80 103 % of control and 115 % of control | dose: 0.75 mg/kg/injection, schedule: Q01DX009 (ip), vehicle: none 103 % of control and 107 % of control | dose: 1.0 mg/kg/injection, schedule: Q01DX009 (ip), vehicle: none 110 % of control | dose: 1.0 mg/kg/injection, schedule: Q01DX009 (ip), vehicle: saline with Tween-80 112 % of control and 119 % of control | dose: 1.5 mg/kg/injection, schedule: Q01DX009 (ip), vehicle: none 105 % of control and 120 % of control and 98 % of control | dose: 2.0 mg/kg/injection, schedule: Q01DX009 (ip), vehicle: none 115 % of control and 120 % of control | dose: 3.0 mg/kg/injection, schedule: Q01DX009 (ip), vehicle: none 95 % of control

CC(=O)CCC1=C(C)C(=O)C(=O)C(C)=C1O
inactive: dose: 60.0 mg/kg/injection, schedule: Q01DX005 (ip), vehicle: Klucel (hydroxypropylcellulose) (HPC) 96 % of control | dose: 120.0 mg/kg/injection, schedule: Q01DX005 (ip), vehicle: Klucel (hydroxypropylcellulose) (HPC) 98 % of control

CCOC(=O)c1ccc(NC(C)=NC(C)(C)C)cc1
inactive: [1] 93 % of control | [2] 91 % of control | dose: 200.0 mg/kg/injection, schedule: Q01DX009 (ip), vehicle: Klucel (hydroxypropylcellulose) (HPC) 102 % of control

N#CSc1ccc2nc(NC(NC(=O)c3ccccc3)C(Cl)(Cl)Cl)sc2c1 (stereo not drawn)
inactive: dose: 6.25 mg/kg/injection, schedule: Q01DX009 (ip), vehicle: Klucel (hydroxypropylcellulose) (HPC) 102 % of control | dose: 12.5 mg/kg/injection, schedule: Q01DX009 (ip), vehicle: Klucel (hydroxypropylcellulose) (HPC) 108 % of control | dose: 25.0 mg/kg/injection, schedule: Q01DX009 (ip), vehicle: Klucel (hydroxypropylcellulose) (HPC) 101 % of control

O=C(O)CC(=O)O.[Cu+2].[NH-]C1CCCC2CCC[N-]C12 (stereo not drawn)
inactive: dose: 5.0 mg/kg/injection, schedule: Q04DX002 (ip), vehicle: saline 93 % of control | dose: 10.0 mg/kg/injection, schedule: Q04DX002 (ip), vehicle: saline 108 % of control

CN1C(N)=NC(c2ccccc2)=CC1(C)c1ccccc1 (stereo not drawn)
inactive: dose: 6.25 mg/kg/injection, schedule: Q01DX005 (ip), vehicle: Klucel (hydroxypropylcellulose) (HPC) 101 % of control | dose: 12.5 mg/kg/injection, schedule: Q01DX005 (ip), vehicle: Klucel (hydroxypropylcellulose) (HPC) 99 % of control | dose: 25.0 mg/kg/injection, schedule: Q01DX005 (ip), vehicle: Klucel (hydroxypropylcellulose) (HPC) 108 % of control

CCOC(=O)C(=CNc1ccccn1)C(=O)OCC
inactive: [3] 95 % of control | [4] 100 % of control | dose: 400.0 mg/kg/injection, schedule: Q01DX009 (ip), vehicle: saline with Tween-80 113 % of control

C=C(C)C1CC2=C(C(=O)OC)C=C(O2)C(C(=C)C)C2OC(=O)/C(=C\C1O)C2OC (stereo not drawn)
inactive: dose: 11.88 mg/kg/injection, schedule: Q01DX005 (ip), vehicle: saline + alcohol 99 % of control | dose: 23.75 mg/kg/injection, schedule: Q01DX005 (ip), vehicle: saline + alcohol 96 % of control | dose: 47.5 mg/kg/injection, schedule: Q01DX005 (ip), vehicle: saline + alcohol 101 % of control | dose: 95.0 mg/kg/injection, schedule: Q01DX005 (ip), vehicle: saline + alcohol 108 % of control | dose: 190.0 mg/kg/injection, schedule: Q01DX005 (ip), vehicle: saline + alcohol 99 % of control

CCOC(=O)N1C(C)CCCC1C (stereo not drawn)
inactive: dose: 60.0 mg/kg/injection, schedule: Q01DX005 (ip), vehicle: saline 106 % of control | dose: 120.0 mg/kg/injection, schedule: Q01DX005 (ip), vehicle: saline 105 % of control | dose: 240.0 mg/kg/injection, schedule: Q01DX005 (ip), vehicle: saline 95 % of control

O=C([O-])CCNC1OC(CO)C(O)C(O)C1O.O=C([O-])CCNC1OC(CO)C(O)C(O)C1O.[Pd+2] (stereo not drawn)
inactive: [5] 99 % of control | [6] 102 % of control | [7] 99 % of control

CC1=NN(C(=O)c2ccccc2)C(C)(C)C1
inactive: dose: 50.0 mg/kg/injection, schedule: Q01DX005 (ip), vehicle: Klucel (hydroxypropylcellulose) (HPC) 113 % of control | dose: 100.0 mg/kg/injection, schedule: Q01DX005 (ip), vehicle: Klucel (hydroxypropylcellulose) (HPC) 111 % of control | dose: 200.0 mg/kg/injection, schedule: Q01DX005 (ip), vehicle: Klucel (hydroxypropylcellulose) (HPC) 97 % of control

C1COCCSCCOCCOCCSCCO1
inactive: [8] 95 % of control | [9] 100 % of control | [10] 101 % of control

Cc1nc2ccccc2[se]1
inactive: [11] 100 % of control | [12] 92 % of control | [13] 96 % of control

CC1(C)C(=O)C(C)(C)C1O[Si](C)(C)OC1C(C)(C)C(=O)C1(C)C
inactive: [8] 102 % of control | [9] 101 % of control | [10] 93 % of control

Nc1nc(N)c2cc(Sc3ccc4ccccc4c3)ccc2n1
inactive: [14] 119 % of control | [4] 119 % of control

Nc1nc2c([nH]c(=O)n2C2OC(CO)C(O)C2O)c(=O)[nH]1 (stereo not drawn)
inactive: [5] 109 % of control | [6] 110 % of control | [7] 112 % of control

CN(C)c1cc2nc3ccccc3nc2cc1O
inactive: dose: 50.0 mg/kg/injection, schedule: Q01DX009 (ip), vehicle: saline 95 % of control | dose: 100.0 mg/kg/injection, schedule: Q01DX009 (ip), vehicle: saline 92 % of control | dose: 200.0 mg/kg/injection, schedule: Q01DX009 (ip), vehicle: saline 100 % of control

CC1(C)N=C(N)N=C(N)N1c1cccc(CCCCc2cccc(S(=O)(=O)F)c2)c1
inactive: dose: 3.9 mg/kg/injection, schedule: Q04DX003 (ip), vehicle: saline with Tween-80 122 % of control | dose: 25.0 mg/kg/injection, schedule: Q04DX003 (ip), vehicle: saline with Tween-80 95 % of control | [15] 90 % of control

CSC(=S)NS(=O)(=O)c1cccs1
inactive: [1] 98 % of control | [2] 91 % of control

COc1nc(NC2OC(CO)C(O)C(O)C2O)c(C(=O)CCl)c(=O)n1C (stereo not drawn)
inactive: [11] 92 % of control | [12] 87 % of control | [13] 95 % of control and 96 % of control

C[Si](C)(C)n1nnn(-c2ccccc2)c1=O
inactive: [14] 99 % of control and 116 % of control | [3] 112 % of control | [4] 106 % of control

Cc1cc(NS(=O)(=O)c2ccc(NCc3c4ccccc4nc4cc(Cl)ccc34)cc2)no1
inactive: [11] 94 % of control | [12] 94 % of control | [13] 94 % of control

COc1cc(/C=C/c2ccc3ccccc3n2)cc(OC)c1OC
inactive: [15] 100 % of control | [3] 86 % of control | dose: 100.0 mg/kg/injection, schedule: Q04DX003 (ip), vehicle: saline with Tween-80 100 % of control | [4] 90 % of control | dose: 200.0 mg/kg/injection, schedule: Q04DX003 (ip), vehicle: saline with Tween-80 100 % of control

O=C1CC2(C(=O)O1)C1C(=O)OC(=O)C1C1c3ccccc3C=NN12 (stereo not drawn)
inactive: [14] 98 % of control | [3] 93 % of control | [4] 100 % of control

CC(C)(C)OC(=O)c1ccc(C(=O)OC(C)(C)C)cc1
inactive: dose: 100.0 mg/kg/injection, schedule: Q04DX002 (ip), vehicle: saline with Tween-80 97 % of control | dose: 200.0 mg/kg/injection, schedule: Q04DX002 (ip), vehicle: saline with Tween-80 96 % of control | dose: 400.0 mg/kg/injection, schedule: Q04DX002 (ip), vehicle: saline with Tween-80 96 % of control

CCCCCC1(CCCCCCCC(=O)OCC)OCCO1
inactive: [8] 97 % of control | [9] 103 % of control | [10] 97 % of control
